Tested on: 786-0 complex spheroid viability
Test: Anticancer human tumor 786-0 cell line growth inhibition;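 also: spheroids exposed to agents for seven days before readout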
Conditions: for IC50: curve of first compound; for viability, T/C: stronger effect = lower value
In short: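 Complex spheroids of tumor cells with HUVEC and human MSCs, exposed to iadademstat combined with other agents. Each agent tested in half-log steps from near clinical Cmax (else 10 microM top), DMSO ≤0.25%.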

[1] = second compound 0.1 µM, first compound 0.00316 µM
[2] = second compound 0.1 µM, first compound 0.01 µM
[3] = second compound 0.1 µM, first compound 0.0316 µM
[4] = second compound 0.1 µM, first compound 0.1 µM
[5] = second compound 0.1 µM, first compound 0.316 µM
[6] = second compound 0.1 µM, first compound 1 µM
[7] = second compound 0.316 µM, first compound 0.00316 µM
[8] = second compound 0.316 µM, first compound 0.01 µM
[9] = second compound 0.316 µM, first compound 0.0316 µM
[10] = second compound 0.316 µM, first compound 0.1 µM
[11] = second compound 0.316 µM, first compound 0.316 µM
[12] = second compound 0.316 µM, first compound 1 µM
[13] = second compound 1 µM, first compound 0.00316 µM
[14] = second compound 1 µM, first compound 0.01 µM
[15] = second compound 1 µM, first compound 0.0316 µM
[16] = second compound 1 µM, first compound 0.1 µM
[17] = second compound 1 µM, first compound 0.316 µM
[18] = second compound 1 µM, first compound 1 µM
[19] = second compound 3.16 µM, first compound 0.00316 µM
[20] = second compound 3.16 µM, first compound 0.01 µM
[21] = second compound 3.16 µM, first compound 0.0316 µM
[22] = second compound 3.16 µM, first compound 0.1 µM
[23] = second compound 3.16 µM, first compound 0.316 µM
[24] = second compound 3.16 µM, first compound 1 µM
[25] = second compound 10 µM, first compound 0.00316 µM
[26] = second compound 10 µM, first compound 0.01 µM
[27] = second compound 10 µM, first compound 0.0316 µM
[28] = second compound 10 µM, first compound 0.1 µM
[29] = second compound 10 µM, first compound 0.316 µM
[30] = second compound 10 µM, first compound 1 µM
[31] = second compound 0.1 µM, first compound 3.16 µM
[32] = second compound 0.1 µM, first compound 10 µM
[33] = second compound 0.316 µM, first compound 3.16 µM
[34] = second compound 0.316 µM, first compound 10 µM
[35] = second compound 1 µM, first compound 3.16 µM
[36] = second compound 1 µM, first compound 10 µM
[37] = second compound 3.16 µM, first compound 3.16 µM
[38] = second compound 3.16 µM, first compound 10 µM
[39] = second compound 10 µM, first compound 3.16 µM
[40] = second compound 10 µM, first compound 10 µM

O=C(C=Cn1cnc(-c2cc(C(F)(F)F)cc(C(F)(F)F)c2)n1)NNc1cnccn1 + NC1CC1c1ccc(-c2cccc(O)c2)cc1
IC50 (second compound 0.1 µM): 37.7 nM
IC50 (second compound 0.316 µM): 34.3 nM
IC50 (second compound 1 µM): 40 nM
IC50 (second compound 3.16 µM): 37.5 nM
IC50 (second compound 10 µM): 35.6 nM
viability, T/C [1]: 92.5%
viability, T/C [2]: 72.2%
viability, T/C [3]: 51.1%
viability, T/C [4]: 39.1%
viability, T/C [5]: 28.9%
viability, T/C [6]: 25.2%
viability, T/C [7]: 100%
viability, T/C [8]: 72.5%
viability, T/C [9]: 51.5%
viability, T/C [10]: 36.7%
viability, T/C [11]: 29.9%
viability, T/C [12]: 26.2%
viability, T/C [13]: 95.7%
viability, T/C [14]: 71.3%
viability, T/C [15]: 53.4%
viability, T/C [16]: 37.7%
viability, T/C [17]: 31.2%
viability, T/C [18]: 22.7%
viability, T/C [19]: 99.4%
viability, T/C [20]: 73.5%
viability, T/C [21]: 52.4%
viability, T/C [22]: 38.1%
viability, T/C [23]: 29.1%
viability, T/C [24]: 26.3%
viability, T/C [25]: 108%
viability, T/C [26]: 67.8%
viability, T/C [27]: 55%
viability, T/C [28]: 39.4%
viability, T/C [29]: 29.7%
viability, T/C [30]: 25.4%

Nc1ncn(C2CC(O)C(CO)S2)c(=O)n1 (stereo not given) + NC1CCC(NC2CC2c2ccccc2)CC1
IC50 (second compound 0.1 µM): 198 nM
IC50 (second compound 0.316 µM): 207 nM
IC50 (second compound 1 µM): 201 nM
IC50 (second compound 3.16 µM): 174 nM
IC50 (second compound 10 µM): 141 nM
viability, T/C (second compound 0.1 µM, first compound 0.000949 µM): 127%
viability, T/C (second compound 0.1 µM, first compound 0.003 µM): 127%
viability, T/C (second compound 0.1 µM, first compound 0.00949 µM): 130%
viability, T/C (second compound 0.1 µM, first compound 0.03 µM): 111%
viability, T/C (second compound 0.1 µM, first compound 0.0949 µM): 78.3%
viability, T/C (second compound 0.1 µM, first compound 0.3 µM): 34.1%
viability, T/C (second compound 0.316 µM, first compound 0.000949 µM): 135%
viability, T/C (second compound 0.316 µM, first compound 0.003 µM): 131%
viability, T/C (second compound 0.316 µM, first compound 0.00949 µM): 130%
viability, T/C (second compound 0.316 µM, first compound 0.03 µM): 120%
viability, T/C (second compound 0.316 µM, first compound 0.0949 µM): 77.1%
viability, T/C (second compound 0.316 µM, first compound 0.3 µM): 37%
viability, T/C (second compound 1 µM, first compound 0.000949 µM): 122%
viability, T/C (second compound 1 µM, first compound 0.003 µM): 123%
viability, T/C (second compound 1 µM, first compound 0.00949 µM): 128%
viability, T/C (second compound 1 µM, first compound 0.03 µM): 115%
viability, T/C (second compound 1 µM, first compound 0.0949 µM): 74.5%
viability, T/C (second compound 1 µM, first compound 0.3 µM): 36.9%
viability, T/C (second compound 3.16 µM, first compound 0.000949 µM): 117%
viability, T/C (second compound 3.16 µM, first compound 0.003 µM): 126%
viability, T/C (second compound 3.16 µM, first compound 0.00949 µM): 126%
viability, T/C (second compound 3.16 µM, first compound 0.03 µM): 108%
viability, T/C (second compound 3.16 µM, first compound 0.0949 µM): 70.2%
viability, T/C (second compound 3.16 µM, first compound 0.3 µM): 32.2%
viability, T/C (second compound 10 µM, first compound 0.000949 µM): 93.6%
viability, T/C (second compound 10 µM, first compound 0.003 µM): 91.8%
viability, T/C (second compound 10 µM, first compound 0.00949 µM): 104%
viability, T/C (second compound 10 µM, first compound 0.03 µM): 98.6%
viability, T/C (second compound 10 µM, first compound 0.0949 µM): 61.9%
viability, T/C (second compound 10 µM, first compound 0.3 µM): 27%

CC1COCCN1c1cc(-c2ccnn2C)c2ccnc(-c3ccn[nH]3)c2n1 (stereo not given) + NC1CCC(NC2CC2c2ccccc2)CC1
IC50 (second compound 0.1 µM): 37.3 nM
IC50 (second compound 0.316 µM): 36.9 nM
IC50 (second compound 1 µM): 30.7 nM
IC50 (second compound 3.16 µM): 22.4 nM
IC50 (second compound 10 µM): 12.4 nM
viability, T/C [1]: 112%
viability, T/C [2]: 110%
viability, T/C [3]: 55.5%
viability, T/C [4]: 16.3%
viability, T/C [5]: 8.21%
viability, T/C [6]: 10.2%
viability, T/C [7]: 123%
viability, T/C [8]: 114%
viability, T/C [9]: 55.1%
viability, T/C [10]: 16.2%
viability, T/C [11]: 7.09%
viability, T/C [12]: 12.1%
viability, T/C [13]: 116%
viability, T/C [14]: 104%
viability, T/C [15]: 48.3%
viability, T/C [16]: 15.1%
viability, T/C [17]: 5.97%
viability, T/C [18]: 11.4%
viability, T/C [19]: 107%
viability, T/C [20]: 83.1%
viability, T/C [21]: 35.9%
viability, T/C [22]: 12.4%
viability, T/C [23]: 5.34%
viability, T/C [24]: 9.25%
viability, T/C [25]: 77.4%
viability, T/C [26]: 57%
viability, T/C [27]: 19.2%
viability, T/C [28]: 5.5%
viability, T/C [29]: 3.62%
viability, T/C [30]: 12%

COc1ccc([C@@H](O)c2cc(-c3ncnc4cc(N5CCOCC5)ccc34)c(F)cc2Cl)nn1 + NC1CC1c1ccc(-c2cccc(O)c2)cc1
IC50 (second compound 0.1 µM): 3590 nM
IC50 (second compound 0.316 µM): 4960 nM
IC50 (second compound 1 µM): 3760 nM
IC50 (second compound 3.16 µM): 2790 nM
IC50 (second compound 10 µM): 2200 nM
viability, T/C [3]: 98.2%
viability, T/C [4]: 100%
viability, T/C [5]: 96.2%
viability, T/C [6]: 79.2%
viability, T/C [31]: 52%
viability, T/C [32]: 37%
viability, T/C [9]: 108%
viability, T/C [10]: 110%
viability, T/C [11]: 102%
viability, T/C [12]: 86.9%
viability, T/C [33]: 56.2%
viability, T/C [34]: 40%
viability, T/C [15]: 101%
viability, T/C [16]: 92.9%
viability, T/C [17]: 93%
viability, T/C [18]: 80%
viability, T/C [35]: 51.7%
viability, T/C [36]: 38%
viability, T/C [21]: 90.1%
viability, T/C [22]: 93.7%
viability, T/C [23]: 88.2%
viability, T/C [24]: 78.1%
viability, T/C [37]: 46.3%
viability, T/C [38]: 38.4%
viability, T/C [27]: 92.3%
viability, T/C [28]: 84.5%
viability, T/C [29]: 81.3%
viability, T/C [30]: 65.7%
viability, T/C [39]: 41.8%
viability, T/C [40]: 34.7%

COc1ccc([C@@H](O)c2cc(-c3ncnc4cc(N5CCOCC5)ccc34)c(F)cc2Cl)nn1 + NC1CCC(NC2CC2c2ccccc2)CC1
IC50 (second compound 0.1 µM): 8630 nM
IC50 (second compound 0.316 µM): 8980 nM
IC50 (second compound 1 µM): 7650 nM
IC50 (second compound 3.16 µM): 7270 nM
IC50 (second compound 10 µM): 4560 nM
viability, T/C [3]: 115%
viability, T/C [4]: 118%
viability, T/C [5]: 119%
viability, T/C [6]: 108%
viability, T/C [31]: 72.6%
viability, T/C [32]: 46.7%
viability, T/C [9]: 127%
viability, T/C [10]: 123%
viability, T/C [11]: 119%
viability, T/C [12]: 110%
viability, T/C [33]: 72.7%
viability, T/C [34]: 47.8%
viability, T/C [15]: 115%
viability, T/C [16]: 116%
viability, T/C [17]: 110%
viability, T/C [18]: 104%
viability, T/C [35]: 69.9%
viability, T/C [36]: 44%
viability, T/C [21]: 104%
viability, T/C [22]: 116%
viability, T/C [23]: 104%
viability, T/C [24]: 95.8%
viability, T/C [37]: 67.4%
viability, T/C [38]: 43.4%
viability, T/C [27]: 89.8%
viability, T/C [28]: 81%
viability, T/C [29]: 84.7%
viability, T/C [30]: 81.6%
viability, T/C [39]: 56.6%
viability, T/C [40]: 35.8%

CC1(C)CCC(CN2CCN(c3ccc(C(=O)NS(=O)(=O)c4ccc(NCC5CCOCC5)c([N+](=O)[O-])c4)c(Oc4cnc5[nH]ccc5c4)c3)CC2)=C(c2ccc(Cl)cc2)C1 + NC1CC1c1ccc(-c2cccc(O)c2)cc1
IC50 (second compound 0.1 µM): > 10000 nM
IC50 (second compound 0.316 µM): > 10000 nM
IC50 (second compound 1 µM): > 10000 nM
IC50 (second compound 3.16 µM): > 10000 nM
IC50 (second compound 10 µM): 8090 nM
viability, T/C [3]: 119%
viability, T/C [4]: 114%
viability, T/C [5]: 115%
viability, T/C [6]: 110%
viability, T/C [31]: 103%
viability, T/C [32]: 66.6%
viability, T/C [9]: 105%
viability, T/C [10]: 114%
viability, T/C [11]: 106%
viability, T/C [12]: 111%
viability, T/C [33]: 100%
viability, T/C [34]: 68.6%
viability, T/C [15]: 113%
viability, T/C [16]: 114%
viability, T/C [17]: 106%
viability, T/C [18]: 106%
viability, T/C [35]: 96.3%
viability, T/C [36]: 60.9%
viability, T/C [21]: 105%
viability, T/C [22]: 110%
viability, T/C [23]: 106%
viability, T/C [24]: 101%
viability, T/C [37]: 93.3%
viability, T/C [38]: 57.3%
viability, T/C [27]: 102%
viability, T/C [28]: 95.7%
viability, T/C [29]: 103%
viability, T/C [30]: 90.8%
viability, T/C [39]: 81.6%
viability, T/C [40]: 42.6%
